Laboratory results from patent US9131687B2, “Roseobacticides and uses thereof” (PRESIDENT AND FELLOWS OF HARVARD COLLEGE, priority 2010, dated 2015).
Where “and” joins values, the source holds several entries; their conditions need not be identical. Equal entries are not always repeated. Where two headings read alike, the source gives them in different places.

Columns and labels:
Emiliana huxleyi CCMP372 = assay: Algaecidal assay, cell counts by flow cytometry and microscopy; format: cell-based; conditions: for IC50: Emiliana huxleyi CCMP372, 24 h, flow cytometry; for algal cell population damaged yet intact: lowest Roseobacticide concentration tested, microscopy; for effect of incubation on E. huxleyi cells: microscopy at 12 and 24 h
Description: (§1) The algaecidal effect of Roseobacticide A and B was tested against five axenic microalgae (the Prymnesiophytes Emiliana huxleyi (CCMP372) and Isochrysis sp. (CCMP468), the green alga Tetraselmis suecica (CCMP908), the diatom Chaetoceros muelleri (CCMP1318) and the cryptomonad Rhodomonas salina (CCMP1319)). All strains were grown on L1 media except for CCMP1318, which was grown in L1+Si (Guillard, R. R. L. & Hargraves, P. E., 1993, Phycologia 32: 234-236). All strains were maintained at 24° C. under 12 h:12 h light:dark illumination.
(§2) To perform assays, algal cultures were diluted 1:1 with the medium they were grown in and then 1 mL aliquots were placed in a 48 well microtitre plate and treated with 0.01-0.000000001 mg/mL of Roseobacticide A or B, or alternatively with MeOH solvent, or medium (as controls) and incubated for 24 h at 24° C. under 12 h: 12 h light:dark illumination. Each treatment was monitored microscopically at 2, 12 and 24 h. Cell counts were determined by flow cytometry and compared to the solvent control.
(§3) Flow cytometry. For flow cytometry counts, duplicate 0.5 ml samples were fixed with 0.125% (vol/vol) glutaraldehyde in the dark for 10 min. Cells were then frozen in an ethanol dry ice bath and stored at −80° C. until analyzed. Cell concentrations were measured with an EPICS flow cytometer using red fluorescence and forward angle light scattering properties to identify the cells as previously described (Cavender-Bares, K. K., et al., 1998, Limnol. Oceanogr. 43:1383-1388).

P. gallaeciensis BS107 = assay: Elicitation of roseobacticide production, HPLC-MS; format: cell-based, Phaeobacter gallaeciensis BS107; conditions: for secondary metabolite production by HPLC-MS: P. gallaeciensis BS107 incubated with elicitor; for EC50: Phaeobacter gallaeciensis
Description: (§4) Roseobacter (Phaeobacter gallaeciensis BS107, Ruegeria sp. R11 and Silicibacter pomeroyi DSS3) and other marine strains (see Table 4) were streaked out from frozen stocks and maintained on Marine Broth (Difco 2216) supplemented with 1.5% agar and incubated at 30° C. for two days. A 50 mL test tube containing 5 mL of ½ strength yeast extract, tryptone and sea salt medium (YTSS, per L: 2 g yeast extract, 1.25 g tryptone, 20 g sea salt) was inoculated with each strain and grown overnight at 30° C. on a horizontal rotating drum fermenter. A 500 mL Erlenmeyer flask containing 50 mL of YTSS medium and 0-3 mM pCA was inoculated with 0.5 mL of the overnight culture and incubated at 160 rpm and 30° C. for 3 d. After 3 d, each culture was extracted once with an equal volume of ethyl acetate, dried in vacuo, resuspended in methanol and analyzed by HPLC-MS as described above.
Preparative-scale (2-8 L) cultivation of P. gallaeciensis BS107 (or other roseobacter strains) was carried out in half-strength yeast extract-tryptonesea salt (YTSS) medium, which consists of (per L): 20 g Sigma sea salt, 2 g yeast extract, and 1.25 g tryptone. P. gallaeciensis BS107 (or other roseobacter strains) were streaked out from frozen culture stocks and maintained on Marine Broth agar plates (Difco 2216) at 30° C. Overnight cultures were initiated by inoculating 5 mL YTSS medium in 15 mL culture tubes and shaking these overnight at 250 rpm and 30° C. A 0.5 L Erlenmeyer flask containing 50 mL YTSS medium was inoculated with 0.5 mL of the overnight culture and grown for 12-18 h at 30° C. and 160 rpm. Large 4 L Erlenmeyer flasks, each containing 0.4 L YTSS medium, were inoculated with 4 mL of the overnight culture and supplemented with 1 mM of each of the elicitors (14-18). The cultures were grown for 3 d at 30° C. and roseobacticides purified as described below.
Eight to ten 0.25 L Erlenmeyer flasks each containing 25 mL of YTSS medium and a range of elicitor concentrations (between 0 and 1.2 mM) were inoculated with 0.25 mL of an overnight P. gallaeciensis BS107 culture prepared as described above. These were grown at 30° C. and 160 rpm. After 3 d, each culture was extracted twice with 25 mL of EtOAc. The organic phase was combined, dried over Na2SO4, and subsequently dried in vacuo. The residue was resuspended in 0.3 mL MeOH and analyzed by HPLC-MS as described above. The amount of roseobacticide B (7) produced, which was quantified by massion extraction ([M+H]^+=269), was plotted against the concentration of the elicitor. The maximal amount of 7 was normalized to 100%, and the EC50, the elicitor concentration where production of 7 was half-maximal, was obtained by fitting the data to equation 1, where Bmax and Bmin are the maximal (˜100%) and minimal (˜0%) amounts of 7 and p is a Hill slope parameter to account for variations in the slope. Bmax and Bmin were allowed to vary to obtain the optimal fit as judged by the R^2 correlation value.

P. gallaeciensis = assay: Growth (OD650 nm) of P. gallaeciensis cultivated with pCA; format: cell-based, Phaeobacter gallaeciensis; conditions: 1 mM pCA, YTSS medium, 3 d, triplicate
Description: as §4
The profiles shown in FIG. 1B have not been corrected for the lower cell density observed in the presence of pCA.

S. pomeroyi DSS-3 = assay: pCA-dependent changes of HPLC-MS profile; format: cell-based, Silicibacter pomeroyi DSS-3; conditions: 0.1-3 mM pCA
Description: as §4
(§5) The inventors cultured three roseobacter strains—S. pomeroyi DSS-3, Ruegeria sp. R11, and P. gallaeciensis BS107—in the presence of varying pCA concentrations (0.1-3 mM). At various time points, the cultures were extracted with ethyl acetate and analyzed by HPLC-MS. The HPLC-MS profiles from S. pomeroyi and Ruegeria sp. […] In the absence of pCA, these compounds were not produced by P. gallaeciensis under any of the conditions that were investigated.

Ruegeria sp. R11 = assay: pCA-dependent changes of HPLC-MS profile; format: cell-based; conditions: 0.1-3 mM pCA
Description: as §4, §5

Bacillus subtilis 3610 = assay: IC50 of Roseobacticide A against selected bacterial strains (disc diffusion / 96 well plate); format: cell-based
Description: (§6) Selected bacterial strains (see Table 4) were tested against Roseobacticide A using the disc diffusion assay (Gauvreau, D. & Waring, M., 1982, J. Appl. Microbiol. Biotechnol. 115:104-110). Overnight cultures of each test strain in YTSS were diluted 1000-fold into YTSS containing 0.7% agar and poured into standard Petri dish plates. Blank paper discs (8 mm, Fisher Scientific) were loaded with 50 μg of phaeobactin A and placed on top of the agar. The plates were incubated at 30° C. for 12-24 h and the presence or absence of an inhibition zone was monitored visually. Ampicillin (0.5 μg) and MeOH were used as positive and negative controls, respectively. In addition, the assay was carried out in 96 well plates according to the 2003 guidelines of the Clinical and Laboratory Standards Institute (CLSI, formerly NCCLS) with minor changes.
(§7) Roseobacters were grown and tested in YTSS medium, B. subtilis 3610 in LB, and P. tunicate D2 in Marine Broth (Difco 2216). Inocula for each test organism were prepared by suspending a colony from an agar plate into 5 mL of YTSS, LB, or Marine Broth in 15 mL bacterial culture tubes. These were grown overnight, and then adjusted to 1×10^8 cells/mL. These cell suspensions were used as inocula for 96 well plate assays: 10 μL of inoculum, corresponding to 1×10^6 cells was added to 90 μL of the appropriate medium and supplemented with 10 μL medium (negative control), 10 μL of MeOH (negative control), 10 μL of 0.5 mg/mL, or 0.25 mg/mL of Roseobacticide A. The assay against each test strain was carried out in duplicate. The plate was incubated without shaking for 24 hours at 30° C., and the OD650 nm determined on a Molecular Devices 96 well plate reader. […] The OD650 nm for the wells containing Roseobacticide A in all each cases was between 80-100% of the value determined for the respective negative controls.

[1] = test system: Phaeobacter gallaeciensis 2.10; assay: as above; format: cell-based
Description: as §6, §7

[2] = test system: Phaeobacter gallaeciensis BS107; assay: as above; format: cell-based
Description: as §6, §7

[3] = test system: Pseudoalteromonas tunicata D2; assay: as above; format: cell-based
Description: as §6, §7

Reugeria sp. R11 = assay: as above; format: cell-based
Description: as §6, §7

[4] = test system: Silicibacter pomeroyi DSS3; assay: as above; format: cell-based; conditions: Ruegeria pomeroyi
Description: as §6, §7

Silicibacter sp. TM1040 = assay: as above; format: cell-based
Description: as §6, §7

Vibrio anguillarum = assay: as above; format: cell-based
Description: as §6, §7

[5] = test system: Chaetoceros muelleri CCMP1318; assay: Algaecidal assay, cell counts by flow cytometry and microscopy; format: cell-based
Description: as §1, §2, §3

Isochrysis sp. CCMP468 = assay: as above; format: cell-based; conditions: Isochrysis sp. CCMP468, 24 h, flow cytometry
Description: as §1, §2, §3

[6] = test system: Rhodomonas salina CCMP1319; assay: as above; format: cell-based; conditions: for IC50: Rhodomonas salina CCMP1319, 24 h, flow cytometry
Description: as §1, §2, §3

[7] = test system: Tetraselmis suecica CCMP908; assay: as above; format: cell-based; conditions: Tetraselmis suecica CCMP908, 24 h, flow cytometry
Description: as §1, §2, §3

[8] = test system: panel of marine bacteria and B. subtilis 3610; assay: Antibacterial assay against the whole panel of test strains (96 well plate, OD650); format: cell-based; conditions: 10 μL of 0.5 mg/mL or 0.25 mg/mL, 24 hours, 30° C., all test strains
Description: as §6
Roseobacters were grown and tested in YTSS medium, B. subtilis 3610 in LB, and P. tunicate D2 in Marine Broth (Difco 2216). […] The plate was incubated without shaking for 24 hours at 30° C., and the OD650 nm determined on a Molecular Devices 96 well plate reader. […] The OD650 nm for the wells containing Roseobacticide A in all each cases was between 80-100% of the value determined for the respective negative controls.

algae = assay: Algicidal activity (lysis of algae), summary over algae; format: cell-based; conditions: read-out: LC50 range, algicidal activity
Description: as §1, §2
as §3, with “For flow cytometry counts, duplicate 0.5 ml samples were fixed with 0.125% (vol/vol) glutaraldehyde in the dark for 10 min.” left out

[9] = BS107, 72 h, 3 d culture, HPLC-MS ion extraction, read-out: EC50, elicitor concentration where production of roseobacticide B (7) is half-maximal

CSc1cccc2c(-c3c[nH]c4ccccc34)c(=O)oc-2c1 [Roseobacticide C]
initial bioassays against E. huxleyi (Emiliana huxleyi CCMP372): potent antialgal compounds

O=C(O)/C=C/c1ccc(O)cc1 [pCA, p-coumaric acid]
secondary metabolite production by HPLC-MS (P. gallaeciensis BS107): stimulated the production of a family of compounds
secondary metabolite production by HPLC-MS (P. gallaeciensis BS107; listed as 14): production of a variety of new metabolites
EC50 (P. gallaeciensis BS107; [9]): 790 ± 30 µM
EC50 (P. gallaeciensis BS107; BS107, FIG. 1C, average of two measurements, read-out: EC50, dose-response of (6) as a function of [pCA]): 790 ± 30 µM
OD650 nm lower than cultures without pCA (P. gallaeciensis): 17±8%
changes of HPLC-MS profile (S. pomeroyi DSS-3): no significant pCA-dependent changes
changes of HPLC-MS profile (Ruegeria sp. R11): no significant pCA-dependent changes

CSc1ccccc2c(-c3ccccc3)c(=O)oc1-2 [Roseobacticide B]
IC50 (Emiliana huxleyi CCMP372): 0.19 µM and ≥ 0.19 µM
algal cell population damaged yet intact (Emiliana huxleyi CCMP372): 48%
effect of incubation on E. huxleyi cells (Emiliana huxleyi CCMP372): cell lysis after 24 h, with cellular damage visible after 12 h

COc1cc(/C=C/C(=O)O)ccc1O [Roseobacticide 16, ferulic acid]
secondary metabolite production by HPLC-MS (P. gallaeciensis BS107): production of a variety of new metabolites
EC50 (P. gallaeciensis BS107; [9]): 160 ± 20 µM

CSc1cccc2c(-c3ccc(O)cc3)c(=O)oc-2c1 [Roseobacticide A]
IC50 (Bacillus subtilis 3610): > 160 µM
IC50 [1]: > 160 µM
IC50 [2]: > 160 µM
IC50 [3]: > 160 µM
IC50 (Reugeria sp. R11): > 160 µM
IC50 [4]: > 160 µM
IC50 (Silicibacter sp. TM1040): > 160 µM
IC50 (Vibrio anguillarum): > 160 µM
effect on C. muelleri cell shape ([5]; 3.5 μM, 24 h): major morphological changes
IC50 ([5]; Chaetoceros muelleri CCMP1318, 24 h, flow cytometry): > 35 µM
IC50 (Emiliana huxleyi CCMP372): ≥ 2.2 µM
algal cell population damaged yet intact (Emiliana huxleyi CCMP372): 20%
effect of incubation on E. huxleyi cells (Emiliana huxleyi CCMP372): cell lysis after 24 h, with cellular damage visible after 12 h
IC50 (Isochrysis sp. CCMP468): > 35 µM
IC50 [6]: ≥ 0.1 µM
IC50 ([6]; Rhodomonas salina, 24 h): 0.1 µM
susceptibility of the R. salina population ([6]; dose response, micrographs): Only a subpopulation appears to be susceptible
IC50 [7]: > 35 µM
OD650 nm relative to the respective negative controls [8]: 80-100%
CC50 (algae): 0.1 to 35 µM

COc1cc(/C=C/C(=O)O)cc(OC)c1O [Roseobacticide 15, sinapic acid]
secondary metabolite production by HPLC-MS (P. gallaeciensis BS107): production of a variety of new metabolites
EC50 (P. gallaeciensis BS107; [9]): 430 ± 30 µM

CSSc1cccc2c(-c3ccccc3)c(=O)oc-2c1 [Roseobacticide E]
initial bioassays against E. huxleyi (Emiliana huxleyi CCMP372): potent antialgal compounds
